The results in this text go back to patent publication US20110195929A1, “COMPOUNDS FOR THE TREATMENT OF FLAVIVIRAL INFECTIONS” (SUMMIT CORPORATION PLC, priority 2008, published 2011).

The test system of experiment [1] is N-acetyl-β-D-glucosaminidase. Kind of experiment: Glycosidase inhibition: N-acetyl-β-D-glucosaminidase. It is filed as biochemical, Bovine kidney. The conditions noted are these: 1 mg/ml; pH 4.25, 20° C. How it is done: (§1) Inhibition of the N-linked glycan trimming enzymes alpha-Glucosidases I and II or alpha-Mannosidases I and II are thought to be related to the anti-viral activity of castanospermine (Compound 104) and 1-deoxynojirimycin (Compound 193). […] All enzymes were purchased from Sigma, as were the appropriate p-nitrophenyl substrates. Assays were carried out in microtitre plates. Enzymes were assayed in 0.1M citric acid/0.2M di-sodium hydrogen phosphate (McIlvaine) buffers at the optimum pH for the enzyme. All assays were carried out at 20° C. For screening assays the incubation assay consisted of 10 μl of enzyme solution, 10 μl of inhibitor solution (made up in water at 5 mM) and 50 μl of the appropriate 5 mM p-nitrophenyl substrate (3.57 mM final conc.) made up in McIlvaine buffer at the optimum pH for the enzyme.
(§2) The reactions were stopped with 0.4M glycine (pH 10.4) during the exponential phase of the reaction, which was determined at the beginning of the assay using blanks with water, which were incubated for a range of time periods to measure the reaction rate using 5 mM substrate solution. Endpoint absorbances were read at 405 nm with a Bio-rad microtitre plate reader (Benchmark). Water was substituted for the inhibitors in the blanks.

Experiment [2] has as its system BVDV. The experiment can be described thus: BVDV plaque inhibition assay. It is filed as cell-based, bovine diarrhoea virus (BVDV). The conditions noted are these: for IC50: Bovine viral diarrhea virus isolates and strains, in Bos taurus; for % untreated control: Example 5. How it is done:
BVDV Plaque Assay: In the absence of a suitable cell culture system able to support replication of human HCV, bovine diarrhoea virus (BVDV) is an accepted cell culture model. HCV and BVDV share a significant degree of local protein homology, a common replication strategy and probably the same subcellular location for viral envelopment.
(§3) The materials and procedures were as described in Whitby et al. (2004) Antiviral Chemistry and Chemotherapy 15: 141-151. In brief, MDBK cells were seeded in 96 well plates and allowed to reach confluency. Monolayers were exposed to between 14 and 45 plaque forming units of BVDV and adsorption allowed to take place. Infected monolayers were then exposed to the test compound, medium added containing low gelling-point agarose and allowed to set. The plates were then incubated for 4 days post infection, fixed in 5% formalin and stained with 0.5% neutral red after removal of the agarose layer. Anti-viral activity was measured by determination of plaque inhibition and expressed as IC50 values. Castanospermine, a known viral inhibitor, was used as a positive control.
For these assays a confluent monolayer of MDBK cells is produced in a flat bottomed well of a tissue culture plate. The monolayer is infected with BVDV. Sufficient virus is added to eventually form approximately 20-30 plaques. After allowing approximately 1 hr for the virus to infect, the cells are washed and liquid agar is added and allowed to set as a thin layer over the cell surface (the ‘overlay’). The infected cells are then left for a period of days to allow the virus to replicate and cells to shed virus, detach or lyse. Cells in the immediate vicinity of the initial virus infection are therefore infected—localized by the agar layer.
The test compound is added at appropriate dilutions with the virus. An antiviral effect of the compound is scored by the reduction of plaque number or size. The concentration of compound required to produce a 50% (IC50) reduction of plaque number or size is noted. Controls of no compound added are included. A control of a known antiviral compound (castanospermine) is carried out to calibrate the antiviral activity.
Plaque Assay: The materials and procedures were as described in Whitby et al. (2004) Antiviral Chemistry and Chemotherapy 15: 141-151.
as §3, with “In” for “The materials and procedures were as described in Whitby et al. (2004) Antiviral Chemistry and Chemotherapy 15: 141-151. In”, “Castanospermine (Compound 104),” for “Castanospermine,”

Experiment [3] has as its system α-D-glucosidase. The experiment can be described thus: Glycosidase inhibition: α-D-glucosidase (Bacillus). The conditions noted are these: 1 mg/ml; pH 6.0, 20° C. The experiment is classed as biochemical, Bacillus stearothermophilus. How it is done:
as §1, §2

Experiment [4] concerns the target T1, α-D-mannosidase (Canavalia ensiformis, UniProt C0HJB3).
T1 construct: purchased Sigma
T1 sequence (C0HJB3 1-981): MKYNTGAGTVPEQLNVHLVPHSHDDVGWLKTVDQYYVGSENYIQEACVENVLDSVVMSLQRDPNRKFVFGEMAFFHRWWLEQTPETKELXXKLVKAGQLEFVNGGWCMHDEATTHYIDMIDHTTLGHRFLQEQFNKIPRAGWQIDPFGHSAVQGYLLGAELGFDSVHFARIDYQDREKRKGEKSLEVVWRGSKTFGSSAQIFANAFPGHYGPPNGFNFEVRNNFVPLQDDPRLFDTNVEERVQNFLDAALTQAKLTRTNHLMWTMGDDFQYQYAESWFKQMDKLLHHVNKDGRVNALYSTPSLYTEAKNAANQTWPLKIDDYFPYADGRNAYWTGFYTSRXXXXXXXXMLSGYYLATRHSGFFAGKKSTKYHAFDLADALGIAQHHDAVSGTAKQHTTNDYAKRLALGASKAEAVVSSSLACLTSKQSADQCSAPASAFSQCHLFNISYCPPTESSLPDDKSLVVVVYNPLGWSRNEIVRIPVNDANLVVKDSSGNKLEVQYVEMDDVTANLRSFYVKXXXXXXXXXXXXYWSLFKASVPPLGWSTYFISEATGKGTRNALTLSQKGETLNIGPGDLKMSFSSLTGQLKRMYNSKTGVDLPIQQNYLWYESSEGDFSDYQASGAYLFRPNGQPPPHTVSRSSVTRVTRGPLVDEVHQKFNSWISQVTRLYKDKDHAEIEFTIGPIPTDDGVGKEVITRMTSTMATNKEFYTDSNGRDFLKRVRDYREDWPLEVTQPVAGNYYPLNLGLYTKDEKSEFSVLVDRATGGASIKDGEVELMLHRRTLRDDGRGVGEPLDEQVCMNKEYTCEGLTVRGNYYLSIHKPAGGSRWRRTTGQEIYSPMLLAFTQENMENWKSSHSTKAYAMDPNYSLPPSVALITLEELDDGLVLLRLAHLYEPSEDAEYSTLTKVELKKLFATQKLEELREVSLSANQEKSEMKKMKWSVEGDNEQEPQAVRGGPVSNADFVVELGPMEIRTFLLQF
Kind of experiment: Glycosidase inhibition: α-D-mannosidase. It is filed as biochemical, Jack beans (Canavalia ensiformis). The conditions noted are these: 1 mg/ml; pH 4.5, 20° C. How it is done: as §1, §2

Experiment [5] has as its target T2, α-D-galactosidase (Coffea arabica, UniProt Q42656).
T2 construct: purchased Sigma
Kind of experiment: Glycosidase inhibition: α-D-galactosidase. It is filed as biochemical, Green coffee beans (Coffea sp.). The conditions noted are these: 1 mg/ml; pH 6.5, 20° C. The method, then: as §1, §2

The test system of experiment [6] is HCV. Kind of experiment: Cell-based HCV infection NS3 protease FRET assay in DMSO-Huh7 cells. On the set-up: species or system hepatitis C virus (HCV). The conditions noted are these: DMSO-Huh7 cells infected with HCV at 0.05 ffu/cell; HCV NS3 protein levels by FRET, day 6 p.i.
Setting [7] is: Examples 1-3, 50% reduction of plaque number or size, MDBK cells, read-out: IC50 (μg/ml).
[8] abbreviates: MDBK, 96 h, read-out: IC50 (μg/ml).

Read-outs that look alike come from different tables or passages of the source.

T2 sequence (Q42656 16-378): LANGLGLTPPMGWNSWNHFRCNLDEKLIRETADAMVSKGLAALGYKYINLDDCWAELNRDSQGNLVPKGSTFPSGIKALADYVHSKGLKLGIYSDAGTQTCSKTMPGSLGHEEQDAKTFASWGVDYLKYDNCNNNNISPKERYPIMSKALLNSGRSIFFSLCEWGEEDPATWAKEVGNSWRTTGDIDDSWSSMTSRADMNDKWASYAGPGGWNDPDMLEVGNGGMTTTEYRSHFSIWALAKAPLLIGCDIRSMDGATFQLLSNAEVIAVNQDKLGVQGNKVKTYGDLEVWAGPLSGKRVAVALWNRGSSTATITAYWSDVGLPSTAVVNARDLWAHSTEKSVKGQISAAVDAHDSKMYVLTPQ

As for `OC[C@@H]1NC[C@H](O)[C@@H]1O` [Compound 167, (2S,3R,4S)-2-(hydroxymethyl)pyrrolidine-3,4-diol], the “% inhibition N-acetyl-β-gluc” value in experiment [1] was found to be 19%. Besides, the IC50 in experiment [2] (setting [7]) amounted to 57.6 µg/mL. Moreover, the “% inhibition α-gluc (Bacillus)” value in experiment [3] is given as 35%. The inhibition (in general, the change of the read-out against control, counted positive when it falls) at 1000 µg/mL came to 0% in experiment [4] and 32% in experiment [5].
On to `CC(O)[C@H](O)[C@H]1N[C@H](CO)[C@@H](O)[C@@H]1O` (stereo partly drawn) [Compound 63, (2R,3R,4R,5R)-2-((1R)-1,2-dihydroxypropyl)-5-(hydroxymethyl)pyrrolidine-3,4-diol], for which the “% inhibition N-acetyl-β-gluc” value in experiment [1] is 0%. The IC50 in experiment [2] (setting [7]) worked out at 87.2 µg/mL. The “% inhibition α-gluc (Bacillus)” value in experiment [3] is recorded as 36%. Further, the inhibition at 1000 µg/mL in experiment [4] and in experiment [5] was 0% in each case. Moreover, the Ave % inhibition entry in experiment [6] is recorded as “+ (+: ≦19%)”.
For `O[C@H]1[C@H](O)[C@@H](O)CN2CC[C@H](O)[C@H]12` [Compound 104, Castanospermine, reference compound], in experiment [1], the “% inhibition N-acetyl-β-gluc” value is reported as 0%. Moreover, the IC50 in experiment [2] (MDBK, 96 h, read-out: IC50) came to 120 µM; in experiment [2] (setting [8]), 22.5 µg/mL; in experiment [2] (setting [7]), 15.6 µg/mL. The “% untreated control” value in experiment [2] (dose 6.0 μg/ml (0.03 mM)) was 98%; in experiment [2] (dose 12.5 μg/ml (0.07 mM)), 67%; in experiment [2] (dose 25.0 μg/ml (0.13 mM)) it was 46%; in experiment [2] (dose 50.0 μg/ml (0.26 mM)), 12%; in experiment [2] (dose 100.0 μg/ml (0.53 mM)), 1.1%. Moreover, in experiment [3], the “% inhibition α-gluc (Bacillus)” value amounted to 0%. The inhibition at 1000 µg/mL in experiment [4] and in experiment [5] was 0% in each case.
On to `CC[C@@H](O)[C@H]1N[C@H](CO)[C@@H](O)[C@@H]1O` [Compound 62, (2R,3R,4R,5R)-2-(hydroxymethyl)-5-((R)-1-hydroxypropyl)pyrrolidine-3,4-diol], for which the “% inhibition N-acetyl-β-gluc” value in experiment [1] is on record as 20%. For the same compound, the IC50 in experiment [2] (setting [7]) turned out to be 16.7 µg/mL. Besides, in experiment [3], the “% inhibition α-gluc (Bacillus)” value is reported as 65%. For the same compound, the inhibition at 1000 µg/mL in experiment [4] and in experiment [5] was 0% each time. Further, the Ave % inhibition entry in experiment [6] is recorded as “+ (+: ≦19%)”.
Turning to `CC[C@@H]1N[C@@H](CO)[C@H](O)[C@@H](O)[C@@H]1O` [Compound 23, (2S,3R,4S,5S,6S)-2-ethyl-6-(hydroxymethyl)piperidine-3,4,5-triol], in experiment [1], the “% inhibition N-acetyl-β-gluc” value is on record as 0%. The IC50 in experiment [2] (MDBK, 96 h, read-out: IC50) stood at 420 µM; in experiment [2] (setting [8]), 80 µg/mL. Besides, the “% untreated control” value in experiment [2] (dose 32 μg/ml (0.17 mM)) amounted to 83%; in experiment [2] (dose 63 μg/ml (0.33 mM)), 56%; in experiment [2] (dose 125 μg/ml (0.65 mM)) it was 47%; in experiment [2] (dose 250 μg/ml (1.30 mM)), 35%; in experiment [2] (dose 500 μg/ml (2.60 mM)), 22%. Besides, the “% inhibition α-gluc (Bacillus)” value in experiment [3] is given as 0%. For the same compound, the inhibition at 1000 µg/mL in experiment [4] and in experiment [5] was 0% each time. In experiment [6], the Ave % inhibition entry is given as “+ (+: ≦19%)”.
